Experimental data as given in PubChem BioAssay AID686929 (Broad Institute, 2013).
Values joined by “and” are separate entries in the source; they are usually repeats but may differ in a detail not shown here. Identical values can stand only once. Active and inactive are the calls of the source. How the calls were made is not given here.

Test system: not listed separately
Assay: Inducers of light in absence of autoinducers, V. cholerae BH1578, confirmatory (AID 686929)
Conditions: V. cholerae BH1578 lux luminescence induction, 6 h; at 35 µM (top of the series)
With O=C(CC1CCCCC1)Nc1nnc(-c2ccc3c(c2)CCCC3)o1 the activation (light induction) was 0.065% (inactive).

Same assay, conditions: V. cholerae BH1578 lux luminescence induction, 6 h; at 80 µM (top of the series)
For Cn1cnc(=O)c2ccccc21, the activation (light induction) was 0.023% (inactive).
With O=C(Nc1nnc(-c2cccc(Cl)c2)o1)C1CCCCC1 the activation (light induction) was 0.048% (inactive).
In the case of COC(=O)c1ccccc1Nc1cccc(Cl)c1, the activation (light induction) is reported as 0.155% (inactive).
For Cc1ccc(-n2cnc(=O)c3ccccc32)cc1Cl, the activation (light induction) was 0.197% (inactive).
In the case of COc1ccc2c(=O)ncn(-c3cccc(Cl)c3)c2c1, the activation (light induction) is reported as 0.008% (inactive).
In the case of Cc1ccc2c(=O)ncn(-c3cccc(Cl)c3)c2c1, the activation (light induction) is reported as 0.023% (inactive).
In the case of NC(=O)c1ccccc1Nc1cccc(Cl)c1, the activation (light induction) is reported as 0.018% (inactive).
With O=c1ncn(-c2cccc(Cl)c2)c2ccc(Cl)cc12 the activation (light induction) was 3.29% (inactive).
With O=C(CC1CCCCC1)Nc1nnc(-c2cccnc2)o1 the activation (light induction) was -0.004% (inactive).
In the case of Cc1nc(=O)c2ccccc2n1-c1cccc(Cl)c1, the activation (light induction) is reported as 9.66% (inactive).
For CCC(C)(C)C(=O)Nc1nnc(-c2ccc3c(c2)OCCO3)o1, the activation (light induction) was -0.001% (inactive).
With O=c1ncn(-c2cccc(Cl)c2)c2cc(Cl)ccc12 the activation (light induction) was 0.003% (inactive).
In the case of O=C(CSc1nc2c(c(=O)[nH]1)CCCC2)NC1CCCCC1, the activation (light induction) is reported as 0.02% (inactive).
For NC(=O)c1ccccc1Nc1ccccc1, the activation (light induction) was 0.096% (inactive).
With O=c1ncn(-c2ccc(Cl)c(Cl)c2)c2ccccc12 the activation (light induction) was 0.027% (inactive).
For COc1cccc(-n2cnc(=O)c3ccccc32)c1, the activation (light induction) was 0.108% (inactive).
With O=C(CSc1nc2ccccc2c(=O)[nH]1)NC1CCCCC1 the activation (light induction) was 0.005% (inactive).
For O=C1C(=O)N(Cc2ccccc2Cl)c2ccccc21, the activation (light induction) was 0.156% (inactive).
With O=c1ncn(Cc2ccc(Cl)cc2)c2ccccc12 the activation (light induction) was 0.035% (inactive).
For O=c1nc(-c2ccccc2)n(-c2cccc(Cl)c2)c2ccccc12, the activation (light induction) was -0.004% (inactive).
In the case of O=c1ncn(-c2ccc(F)c(Cl)c2)c2ccccc12, the activation (light induction) is reported as 1.31% (inactive).
In the case of O=C(Nc1nnc(-c2ccc3c(c2)OCCO3)o1)C1CCCC1, the activation (light induction) is reported as 0.417% (inactive).
With O=c1nc(Cc2ccccc2)n(-c2cccc(Cl)c2)c2ccccc12 the activation (light induction) was 0.573% (inactive).
With Cc1ccc2cc3c(NC(=O)c4ccoc4)nn(C)c3nc2c1 the activation (light induction) was 0.289% (inactive).
In the case of O=c1ncn(-c2cccc(Cl)c2)c2cccc(Cl)c12, the activation (light induction) is reported as 0% (inactive).
For O=C(Nc1nnc(-c2ccc3c(c2)CCCC3)o1)C1CCC1, the activation (light induction) was -0.004% (inactive).
In the case of O=C1C(=O)N(Cc2cccc(Cl)c2)c2ccccc21, the activation (light induction) is reported as 0.001% (inactive).
In the case of CCOC(=O)c1ccccc1Nc1cccc(Cl)c1, the activation (light induction) is reported as 0.004% (inactive).
For O=c1ncn(-c2cccc(F)c2)c2ccccc12, the activation (light induction) was 12.4% (inactive).
In the case of O=c1ncn(-c2ccccc2)c2ccccc12, the activation (light induction) is reported as 4.58% (inactive).
For CCc1nc(=O)c2ccccc2n1-c1cccc(Cl)c1, the activation (light induction) was 0.156% (inactive).
In the case of O=c1ncn(-c2ccccc2Cl)c2ccccc12, the activation (light induction) is reported as 0.05% (inactive).
In the case of O=c1ncn(-c2ccc(Cl)cc2)c2ccccc12, the activation (light induction) is reported as 0.027% (inactive).
In the case of Cc1ccc2c(c1)c(=O)ncn2-c1cccc(Cl)c1, the activation (light induction) is reported as 2.5% (inactive).
With O=C(Nc1nnc(-c2ccc(Cl)cc2)o1)C1CCCCC1 the activation (light induction) was 0.013% (inactive).
In the case of Cc1cccc(-n2cnc(=O)c3ccccc32)c1, the activation (light induction) is reported as 6.74% (inactive).
With O=C(O)c1ccccc1Nc1cccc(Cl)c1 the activation (light induction) was 0.019% (inactive).
With O=c1[nH]cnc2ccccc12 the activation (light induction) was 0.008% (inactive).
With COc1ccc(-n2cnc(=O)c3ccccc32)cc1Cl the activation (light induction) was 0.017% (inactive).

Same assay, conditions: V. cholerae BH1578 lux luminescence induction, 6 h; at 100 µM (top of the series)
In the case of C(=N\c1nnc(-c2ccc3c(c2)OCCO3)o1)/c1ccccc1, the activation (light induction) is reported as 0.009% (inactive).
In the case of O=C(Nc1nnc(-c2ccccc2Cl)o1)C1CCCCC1, the activation (light induction) is reported as 0.002% (inactive).
With Cc1ccc2cc3c(NC(=O)c4ccc(C)o4)nn(C)c3nc2c1 the activation (light induction) was -0.007% (inactive).
For Cn1nc(NC(=O)c2ccco2)c2ccccc21, the activation (light induction) was 0.203% (inactive).
With O=C(Nc1nnc(-c2ccncc2)o1)C1CCC1 the activation (light induction) was 0.061% (inactive).
With CCn1nnnc1/N=C/c1ccc(N2CCCCC2)cc1 the activation (light induction) was 0.106% (inactive).
With CN1CCC(C(=O)Nc2nnc(-c3ccc4c(c3)OCCO4)o2)CC1 the activation (light induction) was 0.038% (inactive).
For CC(C)c1ccc2cc3c(NC(=O)c4ccco4)nn(C)c3nc2c1, the activation (light induction) was 0.254% (inactive).
With COc1cccc(-c2nnc(NC(=O)C3CCCCC3)o2)c1 the activation (light induction) was 0% (inactive).
In the case of O=C(Nc1nnc(-c2ccc3c(c2)OCCO3)o1)C1CCC1, the activation (light induction) is reported as 0.011% (inactive).
For O=C(Nc1nnc(-c2cccnc2)o1)C1CCCCC1, the activation (light induction) was 3.01% (inactive).
For Cc1ccc2cc3c(NC(=O)c4ccccn4)nn(C)c3nc2c1, the activation (light induction) was -0.008% (inactive).
With O=S(=O)(Nc1nnc(-c2ccc3c(c2)OCCO3)o1)c1ccc(Cl)cc1 the activation (light induction) was -0.005% (inactive).
For Cc1ccc2cc3c(NC(=O)c4cc5ccccc5o4)nn(C)c3nc2c1, the activation (light induction) was -0.011% (inactive).
For CC(C)(C)OC(=O)N1CCC(C(=O)Nc2nnc(-c3ccc4c(c3)OCCO4)o2)CC1, the activation (light induction) was 0.022% (inactive).
With Cc1ccc2cc3c(NC(=O)Cc4ccco4)nn(C)c3nc2c1 the activation (light induction) was 0.2% (inactive).
With COc1ccc(S(=O)(=O)Nc2nnc(-c3ccc4c(c3)OCCO4)o2)cc1 the activation (light induction) was 0.008% (inactive).
For O=C(Nc1nnc(-c2ccc3c(c2)OCCO3)o1)C1CC1, the activation (light induction) was 0.006% (inactive).
In the case of CCn1nnnc1N, the activation (light induction) is reported as 0.004% (inactive).
For CN(C)/C=N/c1nnc(-c2ccc3c(c2)OCCO3)o1, the activation (light induction) was 0.03% (inactive).
In the case of Cn1nc(NC(=O)c2ccco2)c2cc3ccc(C(C)(C)C)cc3nc21, the activation (light induction) is reported as -0.001% (inactive).
For Cn1ccc(NC(=O)c2ccco2)n1, the activation (light induction) was 0.065% (inactive).
With O=C(Cc1ccc(-c2ccccc2)cc1)N[C@@H]1CCOC1 (racemic) the activation (light induction) was 12.2% (inactive).
For c1ccc(CNc2nnc(-c3ccc4c(c3)OCCO4)o2)cc1, the activation (light induction) was 0.008% (inactive).
In the case of O=C(Cc1ccc(-c2ccccc2)cc1)NC1COC1, the activation (light induction) is reported as 1.9% (inactive).
With O=C(Cc1ccc(-c2ccccc2)cc1)NC1CNC1 the activation (light induction) was 0.02% (inactive).
With O=C(Nc1nnc(-c2cccnc2)o1)C1CCC1 the activation (light induction) was 0% (inactive).
With O=C(Nc1nnc(C2CCCC2)o1)C1CCCCC1 the activation (light induction) was -0.004% (inactive).
With CCn1nnnc1NC(C)c1ccc(N2CCCC2)cc1 (configuration not stated) the activation (light induction) was 11.2% (inactive).
With COc1ccc(-c2nnc(NC(C)=O)o2)cc1 the activation (light induction) was 0.061% (inactive).
For O=C(Nc1nnc(-c2ccc3c(c2)OCCO3)o1)C(F)(F)c1ccccc1, the activation (light induction) was -0.005% (inactive).

Test system: V. cholerae BH1578 lux luminescence induction, 6 h
Assay: as above
Conditions: not given
Cc1cc(F)cc2nc3c(cc12)c(NC(=O)c1ccco1)nn3C gave an AC40 of 83.3 µM.
Work on CCn1nnnc1NCc1ccc(C(C)C)cc1 yielded an AC40 of 0.923 µM.
Cn1nc(NC(=O)c2ccco2)c2cccnc21 showed an AC40 of 48.8 µM.
In the case of Cc1ccc2cc3c(NC(=O)c4ccco4)nn(C)c3nc2c1, the AC40 is reported as 10.4 µM and 54.6 µM.
O=C(Cc1ccc(-c2ccccc2)cc1)NC1CCC1 showed an AC40 of 1.74 µM.
CC(C)(C)COC(=O)CSc1n[nH]c(=O)[nH]c1=O showed an AC40 of 8.89 µM.
With COc1ccc(-c2nnc(NC(=O)C3CCCCC3)o2)cc1 the AC40 was > 100 µM (inactive).
In the case of Cc1cc2cc3c(NC(=O)c4ccco4)nn(C)c3nc2cc1C, the AC40 is reported as 45.7 µM.
Compound Cc1cc2nc3c(cc2cc1F)c(NC(=O)c1ccco1)nn3C has an AC40 of 25.3 µM.
With O=C(Nc1nnc(-c2ccc3c(c2)OCCO3)o1)C1CCCCC1 the AC40 was 5.45 µM and 1.91 µM.
For O=c1ncn(-c2cc(Cl)cc(Cl)c2)c2ccccc12, the AC40 was > 80 µM (inactive).
In the case of Cc1ccc2cc3c(NC(=O)c4cccs4)nn(C)c3nc2c1, the AC40 is reported as > 80 µM (inactive).
With CCc1ccc2cc3c(NC(=O)c4ccco4)nn(C)c3nc2c1 the AC40 was 52.1 µM.
With Cc1ccc2cc3c(NC(=O)C4CCCC4)nn(C)c3nc2c1 the AC40 was 73.5 µM.
For Cc1cc(F)c2cc3c(NC(=O)c4ccco4)nn(C)c3nc2c1, the AC40 was > 100 µM (inactive).
Cn1nc(NC(=O)c2ccco2)c2cc3ccccc3nc21 gave an AC40 of 6.9 µM.
O=C(Nc1nnc(-c2ccc3c(c2)OCCO3)o1)C1CCCCCC1 gave an AC40 of 11.8 µM.
COc1ccc2cc3c(NC(=O)c4ccco4)nn(C)c3nc2c1 gave an AC40 of 2.97 µM.
CCCCCCCCCC(=O)[C@H](O)CC (racemic) showed an AC40 of 11.5 µM.
For CCCCCCCCCC(=O)C(O)CC (configuration not stated), the AC40 was 3.81 µM.
In the case of COc1ccccc1-c1nnc(NC(=O)C2CCCCC2)o1, the AC40 is reported as > 100 µM (inactive).
